Test results taken from patent publication US8440614B2, “Polymer microspheres/nanospheres and encapsulating therapeutic proteins therein” (priority 2000, dated 2013).

Tests used:
[1] = Antigenicity by sandwich-type capture ELISA after SCCNC treatment; type: binding
Method: Experiments were performed to encapsulate tetanus toxoid (TT) and diphtheria toxoid (DT) vaccine antigens in 50:50 PLGA polymer microspheres formed by SCCNC carbon dioxide and propane. In these tests, DT and TT were each separately treated with supercritical carbon dioxide with 10% (v/v) cosolvent ethanol, and near-critical propane in the presence of PLGA. The pressure and temperature were around 3,000 psig and 30-35° C. respectively. The protein and antigenicity activities were performed by micro BCA assay and a sandwich-type capture ELISA [Gupta, R. K., Siber, G. R., Alonso, M. J. and Langer, R., in Modern Approaches To New Vaccines Including Prevention of AIDS. Ed. by Ginsberg, H. S., Brown, F., Chanock, R. M. and Lerner, R. A. Cold Spring Harbor Laboratory, Press, 1993] assay.

[2] = tested on: chronic diabetic BB/W or male rats; assay: In vivo release of insulin: glucose concentration in diabetic rats; conditions: for Effect on glucose levels (in words): bled 0.5 to 16 hrs after treatment
Method: A preliminary study with SCCNC polymer nanoencapsulated insulin was conducted in diabetic rats. Three groups of four chronic diabetic BB/W or male rats were used to evaluate efficacy on nanoencapsulated insulin (MS-29). One group [A] was given 2 ml of the test formulation (MS-29) using the standard gavage method. The second group [B] received oral non-encapsulated insulin, administered by gavage at the concentration based on the animals' day of diabetes onset. A third group [C] received injected insulin (PZI, Eli Lilly) therapy at the dose consistent with their day of onset of diabetes. The animals were bled prior to treatment and at 0.5, 1, 2, 4, 8, and 16 hrs after treatment.

[3] = aqueous protein; cited from earlier work
[4] = treated with SCCNC carbon dioxide/ethanol mixtures

## 4: Tetanus toxoid, Control [Sample 4]
[1]; toxoid in PLGA microspheres formed by different SCCNC, around 3,000 psig, 30-35° C.
  ELISA (Lf/mL), antigenicity: 9.0 Lf/mL

## Injected Insulin: injected insulin (PZI, Eli Lilly), positive control
[2]; 0.5 hr post-treatment
  Percent Change in Glucose Concentration: −47.4%
[2]; 1 hr post-treatment
  Percent Change in Glucose Concentration: −62.7%
[2]; 2 hr post-treatment
  Percent Change in Glucose Concentration: −71.8%
[2]; 4 hr post-treatment
  Percent Change in Glucose Concentration: −37.9%
[2]; 8 hr post-treatment
  Percent Change in Glucose Concentration: −48.5%
[2]; 16 hr post-treatment
  Percent Change in Glucose Concentration: −37.6%
[2]
  Effect on glucose levels (in words): statistical decrease in glucose levels at all times measured post treatment

## Oral Insulin: oral non-encapsulated insulin, administered by gavage
[2]; 0.5 hr post-treatment
  Percent Change in Glucose Concentration: +2.9%
[2]; 1 hr post-treatment
  Percent Change in Glucose Concentration: −4.6%
[2]; 2 hr post-treatment
  Percent Change in Glucose Concentration: −24.4%
[2]; 4 hr post-treatment
  Percent Change in Glucose Concentration: +2.8%
[2]; 8 hr post-treatment
  Percent Change in Glucose Concentration: +7.5%
[2]; 16 hr post-treatment
  Percent Change in Glucose Concentration: +47.3%
[2]
  Effect on glucose levels (in words): only showed a statistical decrease in the level of glucose at one time point, 2 hours

## diphtheria toxoid
[1]; [4]
  Antigenicity after treatment (in words): lost most of their antigenicity
[1]; treated with near-critical propane
  Antigenicity after treatment (in words): did little damage
[3]
  pH levels at which the toxoid will denature: below 5.0

## tetanus toxoid: tetanus toxoid (TT) vaccine antigen
[1]; [4]
  Antigenicity after treatment (in words): lost most of their antigenicity
[3]
  pH levels at which the toxoid will denature: below 5.0
